The values below are quoted from earlier work in patent US8946160B2, “Nitric oxide amino acid esters for improving vascular circulation, and prophylaxis or treatment of a condition associated with impaired blood circulation” (Oral Delivery Technology Ltd., priority 2010, dated 2015).

Consider `O=[N+]([O-])OCC(CO[N+](=O)[O-])O[N+](=O)[O-]` [nitroglycerin], for which the “maximum shelf life of a product containing nitroglycerin” value was “about six”.
